Columns and labels:
GLP-1R = GLP-1R (Homo sapiens, UniProt P43220); experiment: GLP-1R activation: cAMP increase in CHO cells stably expressing GLP-1R; assay type: cell-based; conditions: cAMP increase, CHO cells stably expressing GLP-1R, 10 point dose response, 30 minutes incubation; read-out: EC50
[1] = Microsomal stability, human liver microsomes (predicted hepatic clearance); conditions: predicted from in vitro microsomal stability data

GLP-1R, sequence (P43220 24-463): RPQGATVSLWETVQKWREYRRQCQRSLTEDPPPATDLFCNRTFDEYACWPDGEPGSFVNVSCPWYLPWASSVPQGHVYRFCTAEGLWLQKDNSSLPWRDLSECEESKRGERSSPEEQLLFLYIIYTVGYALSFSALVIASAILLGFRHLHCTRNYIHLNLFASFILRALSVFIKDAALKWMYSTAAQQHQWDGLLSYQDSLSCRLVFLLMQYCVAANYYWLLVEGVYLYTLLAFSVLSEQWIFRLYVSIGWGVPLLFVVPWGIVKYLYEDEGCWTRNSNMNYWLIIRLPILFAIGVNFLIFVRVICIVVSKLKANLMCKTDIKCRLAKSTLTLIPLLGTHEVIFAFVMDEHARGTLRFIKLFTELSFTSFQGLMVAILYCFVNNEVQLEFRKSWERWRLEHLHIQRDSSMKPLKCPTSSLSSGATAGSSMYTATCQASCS

SMILES	EC50 (GLP-1R)	Predicted Hepatic Clearance (Pred. Cl.) [1]
COCCn1c(Cc2ccc(-c3cccc(OCc4ccc(Cl)cn4)n3)cc2F)nc2ccc(C(=O)O)cc21 [Example 693]	15.9 nM	9.67 mL/min/kg
CCOc1cc(C#N)ccc1COc1cccc(-c2ccc(Cc3nc4ccc(C(=O)O)cc4n3CCOC)c(F)c2)n1 [Example 238, 2-(4-(6-((4-cyano-2-ethoxybenzyl)oxy)pyridin-2-yl)-2-fluorobenzyl)-1-(2-methoxyethyl)-1H-benzo[d]imidazole-6-carboxylic acid]	12 nM	8.67 mL/min/kg
COCCn1c(Cc2ccc(-c3ccccc3OCc3ccc(C#N)cc3F)cc2F)nc2ccc(C(=O)O)cc21 [Example 182, 2-((2′-((4-cyano-2-fluorobenzyl)oxy)-3-fluoro-[1,1′-biphenyl]-4-yl)methyl)-1-(2-methoxyethyl)-1H-benzo[d]imidazole-carboxylic acid]	449 nM	7.67 mL/min/kg
N#CCC1(Cn2c(Cc3ccc(-c4ccnc(OCc5ccc(C#N)cc5F)n4)c(F)c3)nc3ccc(C(=O)O)nc32)CC1 [Example 300, 2-(4-(2-((4-cyano-2-fluorobenzyl)oxy)pyrimidin-4-yl)-3-fluorobenzyl)-3-((1-(cyanomethyl)cyclopropyl)methyl)-3H-imidazo[4,5-b]pyridine-5-carboxylic acid]	0.68 nM	<1.83 mL/min/kg
COCCn1c(Cc2ccc(-c3cccc(OCc4ccc(C#N)cc4F)n3)cc2C2=CCN(C(=O)OC(C)(C)C)CC2)nc2ccc(C(=O)O)cc21 [Example 173, 2-(2-(1-(tert-butoxycarbonyl)-1,2,3,6-tetrahydropyridin-4-yl)-4-(6-((4-cyano-2-fluorobenzyl)oxy)pyridin-2-yl)benzyl)-1-(2-methoxyethyl)-1H-benzo[d]imidazole-6-carboxylic acid]	774 nM	5 mL/min/kg
COc1cc(C#N)ccc1COc1nccc(-c2cc(F)c(Cc3nc4ccc(C(=O)O)cc4n3CC3(CC#N)CC3)cc2F)n1 [Example 417, 2-(4-(2-((4-cyano-2-methoxybenzyl)oxy)pyrimidin-4-yl)-2,5-difluorobenzyl)-1-((1-(cyanomethyl)cyclopropyl)methyl)-1H-benzo[d]imidazole-6-carboxylic acid]	0.1 nM	12.7 mL/min/kg
COCCn1c(Cc2ccc(-c3cc(C(=O)O)cc(OCc4ccc(C#N)cc4F)n3)cc2F)nc2ccc(C(=O)O)cc21 [Example 97, 2-(4-(4-carboxy-6-((4-cyano-2-fluorobenzyl)oxy)pyridin-2-yl)-2-fluorobenzyl)-1-(2-methoxyethyl)-1H-benzo[d]imidazole-6-carboxylic acid]	2780 nM	3.5 mL/min/kg
COCC1(Cn2c(Cc3ccc(-c4cccc(OCc5ccc(C#N)cc5F)n4)cc3F)nc3ccc(C(=O)O)cc32)CC1 [Example 380, 2-(4-(6-((4-cyano-2-fluorobenzyl)oxy)pyridin-2-yl)-2-fluorobenzyl)-1-((1-(methoxymethyl)cyclopropyl)methyl)-1H-benzo[d]imidazole-6-carboxylic acid]	7.72 nM	<1.83 mL/min/kg
N#Cc1ccc(COc2cccc(-c3cc(F)c(Cc4nc5ccc(C(=O)O)cc5n4Cc4nncs4)cc3F)n2)c(F)c1 [Example 576, 1-((1,3,4-thiadiazol-2-yl)methyl)-2-(4-(6-((4-cyano-2-fluorobenzyl)oxy)pyridin-2-yl)-2,5-difluorobenzyl)-1H-benzo[d]imidazole-6-carboxylic acid]	0.86 nM	8 mL/min/kg
COCCn1c(Cc2cc(F)c(-c3cccc(OCc4ccc(-c5cnn(C)c5)cc4F)n3)cc2F)nc2ccc(C(=O)O)cc21 [Example 915, 2-[[2,5-difluoro-4-[6-[[2-fluoro-4-(1-methylpyrazol-4-yl)phenyl]methoxy]-2-pyridyl]phenyl]methyl]-3-(2-methoxyethyl)benzimidazole-5-carboxylic acid]	2.26 nM	4 mL/min/kg
COCCn1c(Cc2ccc(-c3cccc(OCc4ccc(C#N)cc4F)n3)cc2CF)nc2ccc(C(=O)O)cc21 [Example 410, 2-(4-(6-((4-cyano-2-fluorobenzyl)oxy)pyridin-2-yl)-2-(fluoromethyl)benzyl)-1-(2-methoxyethyl)-1H-benzo[d]imidazole-carboxylic acid]	20.8 nM	14.8 mL/min/kg
COCCn1c(Cc2ccc(-c3ccc(F)c(OCc4ccc(C#N)cc4F)n3)c(F)c2)nc2ccc(C(=O)O)cc21 [Example 320, 2-(4-(6-((4-cyano-2-fluorobenzyl)oxy)-5-fluoropyridin-2-yl)-3-fluorobenzyl)-1-(2-methoxyethyl)-1H-benzo[d]imidazole-carboxylic acid]	18 nM	4.17 mL/min/kg
N#CCC1(Cn2c(Cn3ccc(-c4cccc(OCc5ccc(C#N)cc5F)n4)cc3=O)nc3ccc(C(=O)O)cc32)CC1 [Example 422, 2-((6-((4-cyano-2-fluorobenzyl)oxy)-2′-oxo-[2,4′-bipyridin]-1′(2′H)-yl)methyl)-1-((1-(cyanomethyl)cyclopropyl)methyl)-1H-benzo[d]imidazole-6-carboxylic acid]	0.87 nM	2.67 mL/min/kg
COCCn1c(Cc2cc(F)c(-c3cccc(OCc4ccc(Cl)cc4F)n3)cc2F)nc2c(F)cc(C(=O)O)cc21 [Example 662]	0.39 nM	3.67 mL/min/kg
N#Cc1ccc(COc2cccc(-c3ccc(Cc4nc5ccc(C(=O)O)cc5n4CC4(CF)CC4)c(F)c3)n2)c(F)c1 [Example 10, 2-(4-(6-((4-cyano-2-fluorobenzyl)oxy)pyridin-2-yl)-2-fluorobenzyl)-1-((1-(fluoromethyl)cyclopropyl)methyl)-1H-benzo[d]imidazole-6-carboxylic acid]	0.57 nM	2.83 mL/min/kg
COCCn1c(Cc2ccc(-c3cccc(OCc4ccc(C#N)cc4F)n3)cc2OC(F)(F)F)nc2ccc(C(=O)O)cc21 [Example 40, 2-(4-(6-((4-cyano-2-fluorobenzyl)oxy)pyridin-2-yl)-2-(trifluoromethoxy)benzyl)-1-(2-methoxyethyl)-1H-benzo[d]imidazole-6-carboxylic acid]	456 nM	<1.83 mL/min/kg
COCCn1c(Cc2c(F)cc(-c3cccnc3OCc3ccccc3F)cc2F)nc2ccc(C(=O)O)cc21 [Example 192, 2-(2,6-difluoro-4-(2-((2-fluorobenzyl)oxy)pyridin-3-yl)benzyl)-1-(2-methoxyethyl)-1H-benzo[d]imidazole-carboxylic acid]	437 nM	13 mL/min/kg
CNC(=O)C(Cn1c(Cc2ccc(-c3cccc(OCc4ccc(C#N)cc4F)n3)cc2F)nc2ccc(C(=O)O)cc21)OC (single isomer, unassigned) [Example 336, 2-(4-(6-((4-cyano-2-fluorobenzyl)oxy)pyridin-2-yl)-2-fluorobenzyl)-1-(2-methoxy-3-(methylamino)-3-oxopropyl)-1H-benzo[d]imidazole-6-carboxylic acid]	4.9 nM	7 mL/min/kg
